The values that follow come from patent US9492418B2, “Inhibitors of PFKFB3 for cancer therapy” (Board of Supervisors of Louisiana State University And …, priority 2011, dated 2016).

Assay [1] relates to HeLa and T47D cells. Briefly: Cell growth inhibition (XTT or trypan blue). Conditions: for cell survival compared to unexposed cells: 25 μM. In kind it is cell-based, human. On the procedure: (§1) HeLa and T47D cell lines were cultured in a 10% CO2 humidified atmosphere at 37° C. as exponentially growing monolayers in Dulbecco's modified Eagle's medium (DMEM) with glutamax (Invitrogen), supplemented with 10% fetal calf serum (Invitrogen) and penicillin/streptomycin (100 U/ml and 100 μg/ml). The human cervical carcinoma cell line, HeLa, was kindly provided by Dr. J. Kim (Louisiana State University) and the human breast carcinoma cell line, T47D, was obtained from the American Type Culture Collection (Manassas, Va.).
Cell growth inhibition was determined by an XTT-based in-vitro toxicology assay (Sigma-Aldrich) or trypan blue staining. Cells were plated at a density of 3.5×10^4 per well in a 24-well plate in DMEM containing 10% FCS. These cells were allowed to attach for 24 hours, and the media were replaced with fresh media containing either vehicle (dimethyl sulfoxide) or appropriate concentrations of test compounds. After 36 hours of incubation with either vehicle or compounds, cells were trypsinized and cell viability was determined by the trypan blue exclusion assay using a hemacytometer. For the XTT assay, cells were seeded into 96-well cell culture plates at a density of 0.6×10^4 per well. After the appropriate treatment described above, cells were incubated with 0.1 mg/ml of 2,3-bis(2-methoxy-4-nitro-5-sulfophenyl)-5-[(phenylamino)carbonyl]-2H-tetrazolium hydroxide (XTT) for 4 hours, and then cell number was determined by the absorbance at 470 nm, which is proportional to the number of cells that remained attached to the plate. GI50s were calculated as the inhibitor concentration needed for 50% of vehicle-treated cell growth. The appearance of apoptotic or necrotic cells was determined by flow cytometric analysis of cells double stained with Annexin V-FITC and propidium iodide (PI). […] The fluorescence of samples were analyzed by flow cytometry (FACSCalibur®, Becton Dickinson Immunocytometry, San Jose, Calif.) using the CellQuest (BD Bioscience, Immunocytometry Systems, San Jose, Calif., USA) software.

Assay [2] relates to HeLa cells. Briefly: Flow-cytometric analysis of cell death (Annexin V-FITC / PI). In kind it is cell-based, human. On the procedure:
Cell growth inhibition was determined by an XTT-based in-vitro toxicology assay (Sigma-Aldrich) or trypan blue staining. Cells were plated at a density of 3.5×10^4 per well in a 24-well plate in DMEM containing 10% FCS. These cells were allowed to attach for 24 hours, and the media were replaced with fresh media containing either vehicle (dimethyl sulfoxide) or appropriate concentrations of test compounds. After 36 hours of incubation with either vehicle or compounds, cells were trypsinized and cell viability was determined by the trypan blue exclusion assay using a hemacytometer. For the XTT assay, cells were seeded into 96-well cell culture plates at a density of 0.6×10^4 per well. After the appropriate treatment described above, cells were incubated with 0.1 mg/ml of 2,3-bis(2-methoxy-4-nitro-5-sulfophenyl)-5-[(phenylamino)carbonyl]-2H-tetrazolium hydroxide (XTT) for 4 hours, and then cell number was determined by the absorbance at 470 nm, which is proportional to the number of cells that remained attached to the plate. GI50s were calculated as the inhibitor concentration needed for 50% of vehicle-treated cell growth. The appearance of apoptotic or necrotic cells was determined by flow cytometric analysis of cells double stained with Annexin V-FITC and propidium iodide (PI). Apoptotic and necrotic cells were distinguished on the basis of double-labeling for Annexin V-FITC (Sigma-Aldrich) and PI, a membrane-impermeable DNA stain. Floating and freshly trypsinized cells were pooled, washed twice in binding buffer, and processed following manufacturer's instructions. The fluorescence of samples were analyzed by flow cytometry (FACSCalibur®, Becton Dickinson Immunocytometry, San Jose, Calif.) using the CellQuest (BD Bioscience, Immunocytometry Systems, San Jose, Calif., USA) software.

For assay [3], the target named is T1, PFKFB2 (Homo sapiens, UniProt O60825).
T1 construct: His6; made in house; host or cells: Escherichia coli C41(DE3)
T1 sequence (O60825 whole entry): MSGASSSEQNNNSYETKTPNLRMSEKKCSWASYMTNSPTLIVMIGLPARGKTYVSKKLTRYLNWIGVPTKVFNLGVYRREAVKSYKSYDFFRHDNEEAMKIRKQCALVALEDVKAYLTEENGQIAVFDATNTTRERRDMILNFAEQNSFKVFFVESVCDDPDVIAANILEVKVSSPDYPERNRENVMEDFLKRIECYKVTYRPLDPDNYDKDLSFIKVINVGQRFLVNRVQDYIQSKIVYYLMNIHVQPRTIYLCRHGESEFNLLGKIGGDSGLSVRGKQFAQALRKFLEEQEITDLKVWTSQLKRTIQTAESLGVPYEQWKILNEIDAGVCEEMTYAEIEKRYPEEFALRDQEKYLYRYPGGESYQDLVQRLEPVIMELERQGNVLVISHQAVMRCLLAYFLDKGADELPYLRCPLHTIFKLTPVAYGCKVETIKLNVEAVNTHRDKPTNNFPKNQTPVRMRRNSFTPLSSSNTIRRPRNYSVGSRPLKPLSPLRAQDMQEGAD
As to the kind of experiment: 2-Kase selectivity assay on PFKFB isoforms. In kind it is biochemical. Particulars: at twice the IC50 for PFKFB3 (N4A=6 μM, YN1=1.3 μM). On the procedure: (§2) To determine steady-state initial reaction rates, the 2-Kase reactions were performed first and the Fru-2,6-BP produced was measured by a conventional enzyme-coupled kinetics assay as described previously. The compounds, N4A and RBC2 came from the National Cancer Institute as indicated in Example 1. […] Initial rates of decrease in absorbance (Abs) at 340 nm were corrected with the rate of the control reaction in which no Fru-2,6-BP was present. Negative controls were carried out in the absence of enzyme and positive controls indicate the reaction in the presence of enzyme without inhibitor compounds. The percentage of Inhibitory activity was calculated according to the formula: % inhibition=100×[1−(Absnegative control−Abscompound)/(Absnegative control−Abspositive control)]. IC50 values were determined in quadruplicate. For the kinetic studies, concentrations of one of substrate and inhibitor were varied, and decrease in absorbance at 340 nm was measured. The inhibition patterns were analyzed using the program written by Cleland, in which Ki is the dissociation constants for the inhibitor from enzyme-inhibitor complex. For Selectivity studies, the 2-Kase assays were performed first and the F-2,6-P2 produced was measured by an enzyme coupled kinetics assay as described above. The His6-tagged PFKFB isoforms, PFKFB1, PFKFB2, and PFKFB4 were expressed in Escherichia coli C41(DE3) and purified using Ni-NTA affinity columns.

In assay [4] the target is T2, PFKFB1 (Homo sapiens, UniProt P16118).
T2 construct: His6; made in house; host or cells: Escherichia coli C41(DE3)
T2 sequence (P16118 whole entry): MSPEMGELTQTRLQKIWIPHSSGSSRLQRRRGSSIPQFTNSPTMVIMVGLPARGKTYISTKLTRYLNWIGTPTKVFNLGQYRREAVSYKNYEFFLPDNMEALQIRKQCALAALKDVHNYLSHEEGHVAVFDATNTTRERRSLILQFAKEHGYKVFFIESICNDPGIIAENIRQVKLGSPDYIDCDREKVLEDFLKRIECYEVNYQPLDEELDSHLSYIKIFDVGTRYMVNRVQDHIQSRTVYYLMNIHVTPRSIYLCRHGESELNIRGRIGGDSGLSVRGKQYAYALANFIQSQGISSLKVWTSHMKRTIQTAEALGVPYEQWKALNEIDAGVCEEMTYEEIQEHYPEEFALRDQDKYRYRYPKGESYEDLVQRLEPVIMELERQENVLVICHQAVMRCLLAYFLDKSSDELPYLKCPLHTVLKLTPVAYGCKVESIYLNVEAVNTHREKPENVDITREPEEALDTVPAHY
As to the kind of experiment: 2-Kase selectivity assay on PFKFB isoforms. It counts as biochemical. Particulars: at twice the IC50 for PFKFB3 (N4A=6 μM, YN1=1.3 μM). On the procedure: as §2

Assay [5] concerns the target T3, PFKFB4 (Homo sapiens, UniProt Q16877).
T3 construct: His6; made in house; host or cells: Escherichia coli C41(DE3)
Briefly: 2-Kase selectivity assay on PFKFB isoforms. Conditions: at twice the IC50 for PFKFB3 (N4A=6 μM, YN1=1.3 μM). In kind it is biochemical. On the procedure:
as §2

For assay [6], the system named is HeLa cells. Briefly: Cellular Fru-2,6-BP level determination. In kind it is cell-based, human. Particulars: 25 μM, 8 hour exposure. On the procedure: HeLa cells were plated at a density of 2.5×10^5 in a 6-well plate in DMEM containing 10% FCS. The media were replaced with fresh DMEM containing either vehicle (dimethyl sulfoxide) or 25 μM of inhibitor the following day. After 0, 4, 8, 12, 24, or 48 hours of incubation with each inhibitor, media samples were collected for measuring the lactate secretion levels using a lactate oxidase-based assay kit (Sigma-Aldrich), and the lactate concentration was normalized to the total cellular protein concentration. The Fru-2,6-BP level was determined with collected cells at times of 0, 4, 8, 12, 24, or 48 hours after the treatment, using the method described previously.

Assay [7] has as its target T4, human PFKFB3 (Homo sapiens, UniProt Q16875). Briefly: 2-Kase assay and kinetic analysis (enzyme-coupled Fru-2,6-BP assay). In kind it is biochemical. Also noted: 443 amino acid residues of the full-length protein of 520 residues; 6xHis; made in house; host or cells: Escherichia coli BL21(DE3) pLysS. Particulars: for Inhibition (type): versus Fru-6-P. On the procedure:
as §2, with “The percentage of Inhibitory activity was calculated according to the formula: % inhibition=100×[1−(Absnegative control−Abscompound)/(Absnegative control−Abspositive control)].” left out

The test system of assay [8] is HeLa cells. As to the kind of experiment: Soft agar colony formation. In kind it is cell-based, human. On the procedure:
HeLa cell colony formation was determined by soft agar assay. Cells (2×10^3) were mixed in DMEM medium containing 0.35% agarose and varying concentrations of N4A or YN1. Then the cell mixture was added on a layer of 0.6% concentration of bottom agar in 24 well plate and allowed to grow for three weeks at 37° C. under 5% CO2. Fresh medium containing the inhibitors or vehicle (DMSO) was changed every four days. Colonies of 50 cells or more were counted after three weeks. The experiments were repeated at least five times.

For assay [9], the system named is MCF7. Briefly: Cell growth inhibition. Conditions: Homo sapiens. In kind it is cell-based. On the procedure: Cell growth inhibition was determined by an XTT-based in-vitro toxicology assay (Sigma-Aldrich) or trypan blue staining. Cells were plated at a density of 3.5×10^4 per well in a 24-well plate in DMEM containing 10% FCS. These cells were allowed to attach for 24 hours, and the media were replaced with fresh media containing either vehicle (dimethyl sulfoxide) or appropriate concentrations of test compounds. After 36 hours of incubation with either vehicle or compounds, cells were trypsinized and cell viability was determined by the trypan blue exclusion assay using a hemacytometer. For the XTT assay, cells were seeded into 96-well cell culture plates at a density of 0.6×10^4 per well. After the appropriate treatment described above, cells were incubated with 0.1 mg/ml of 2,3-bis(2-methoxy-4-nitro-5-sulfophenyl)-5-[(phenylamino)carbonyl]-2H-tetrazolium hydroxide (XTT) for 4 hours, and then cell number was determined by the absorbance at 470 nm, which is proportional to the number of cells that remained attached to the plate. GI50s were calculated as the inhibitor concentration needed for 50% of vehicle-treated cell growth. The appearance of apoptotic or necrotic cells was determined by flow cytometric analysis of cells double stained with Annexin V-FITC and propidium iodide (PI). […]

Assay [10] concerns the target T4, human PFKFB3. As to the kind of experiment: Biochemical throughput screening of NCI Diversity Set II and steady-state inhibition kinetics. Also on record: 443 amino acid residues of the full-length protein of 520 residues; 6xHis; made in house. Particulars: against F-6-P and ATP. On the procedure:
To generate a framework of actives and non-actives for virtual screening, a throughput study of 1,364 NCI compounds was carried out. The inhibition extent of 10 μM of each compound, in substrate saturation conditions, was quantified and the results of the top 50 compounds are shown in FIG. 1. An arbitrary cutoff was chosen at 75% inhibition to describe compounds that were to be considered ‘potential’ actives. Based on this cutoff, 10 compounds were identified from the original 1,364.
To select the true positives, the 10 potential actives were subsequently tested for specificity for the F-6-P site, because the virtual screening was targeted for the F-6-P site. Using conventional steady state inhibition kinetics, 6 compounds were selected as the ‘true actives’ (T-actives), and these six compounds are shown in FIG. 3.
The recombinant human PFKFB3 was expressed and purified as previously described.[20] The 1,364 individual compounds of NCI's Diversity Set II were acquired from the NCI.
The 2-kinase activity assay for throughput screening was performed using a F-2,6-P2 assay modified for 96-well plates from the conventional method.[21] […] The reactions of seconds step were started by adding 0.5 mM sodium pyrophosphate (PPi) and were then measured for changes in absorbance at 340 nm over a period of 30 minutes. […]

In assay [11] the test system is T47D. As to the kind of experiment: Cell growth inhibition. In kind it is cell-based. Particulars: Homo sapiens. On the procedure:
as §1
Cell growth inhibition was determined by an XTT-based in-vitro toxicology assay (Sigma-Aldrich) or trypan blue staining. […] After 36 hours of incubation with either vehicle or compounds, cells were trypsinized and cell viability was determined by the trypan blue exclusion assay using a hemacytometer. […] After the appropriate treatment described above, cells were incubated with 0.1 mg/ml of 2,3-bis(2-methoxy-4-nitro-5-sulfophenyl)-5-[(phenylamino)carbonyl]-2H-tetrazolium hydroxide (XTT) for 4 hours, and then cell number was determined by the absorbance at 470 nm, which is proportional to the number of cells that remained attached to the plate. […] The appearance of apoptotic or necrotic cells was determined by flow cytometric analysis of cells double stained with Annexin V-FITC and propidium iodide (PI). […]

T4 sequence (Q16875 whole entry): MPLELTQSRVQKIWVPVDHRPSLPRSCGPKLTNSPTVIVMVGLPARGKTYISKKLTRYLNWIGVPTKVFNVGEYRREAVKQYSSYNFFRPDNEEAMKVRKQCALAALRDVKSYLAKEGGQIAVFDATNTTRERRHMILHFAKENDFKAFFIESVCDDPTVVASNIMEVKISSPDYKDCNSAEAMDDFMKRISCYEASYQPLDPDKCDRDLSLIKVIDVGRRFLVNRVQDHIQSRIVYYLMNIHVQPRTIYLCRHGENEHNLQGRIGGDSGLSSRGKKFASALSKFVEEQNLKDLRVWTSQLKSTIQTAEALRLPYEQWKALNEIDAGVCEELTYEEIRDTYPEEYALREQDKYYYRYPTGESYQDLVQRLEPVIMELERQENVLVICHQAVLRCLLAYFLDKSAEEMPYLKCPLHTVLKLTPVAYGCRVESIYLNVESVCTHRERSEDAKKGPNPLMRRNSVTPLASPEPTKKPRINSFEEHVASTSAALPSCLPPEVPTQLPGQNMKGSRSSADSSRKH
T3 sequence (Q16877 whole entry): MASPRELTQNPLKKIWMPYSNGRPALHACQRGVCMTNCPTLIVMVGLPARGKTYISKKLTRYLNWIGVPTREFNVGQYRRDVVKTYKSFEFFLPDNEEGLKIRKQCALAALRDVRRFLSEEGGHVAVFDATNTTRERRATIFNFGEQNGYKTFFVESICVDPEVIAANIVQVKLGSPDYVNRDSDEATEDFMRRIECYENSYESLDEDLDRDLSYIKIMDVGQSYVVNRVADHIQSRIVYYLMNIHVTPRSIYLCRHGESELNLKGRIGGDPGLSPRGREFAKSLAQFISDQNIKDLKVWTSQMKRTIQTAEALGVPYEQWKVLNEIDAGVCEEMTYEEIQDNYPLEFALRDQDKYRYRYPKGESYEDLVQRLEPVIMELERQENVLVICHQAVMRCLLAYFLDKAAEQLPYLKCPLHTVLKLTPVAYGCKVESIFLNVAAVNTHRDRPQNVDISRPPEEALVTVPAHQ

For `CCOC(=O)c1cc2ccc(O)cc2oc1=O` [YZ9, ethyl 7-hydroxy-2-oxochromene-3-carboxylate], the “cell survival compared to unexposed cells” value in assay [1] is recorded as “significant reduction in cell survival”. In assay [1] (Homo sapiens, 36 h, cell line not stated in Table 1 (HeLa and T47D tested)), the GI50 turned out to be 2700 nM.

For the compound `O=c1cc(-c2ccc(O)cc2)oc2c(O)c(O)c(O)c(O)c12` [Compound N4A, 5,6,7,8-tetrahydroxy-2-(4-hydroxyphenyl)chromene-4-one], the “type of cell death at low concentration” value in assay [2] (25 μM) is “cells were found to be prone to apoptosis”. Further, the “type of cell death induced” value in assay [2] (25 μM and 50 μM) is “induced both apoptotic and necrotic cell death”. Besides, the “type of cell death at higher concentration” value in [2] (50 μM) is given as “death by necrosis was significantly increased”. The “percent inhibition of PFKFB2” value in assay [3] was “less than 50%”. For the same compound, the “percent inhibition of PFKFB1” value in assay [4] is on record as “less than 50%”. The “percent inhibition of PFKFB4” value in assay [5] was “less than 50%”. The “reduction of Fru-2,6-BP (ratio to control)” value in assay [6] was “approximately 20%”. Also, the “cell survival compared to unexposed cells” value in [1] is reported as “significant reduction in cell survival”. The compound also returned an inhibition at 10 µM in assay [7] (10 μM, substrate-saturating conditions, not affected by 0.1% Tween-20) above 65%. In assay [7] (PFKFB3 2-kinase activity), the IC50 came out at 2970 ± 160 nM. The Ki in assay [7] (competitive against Fru-6-P) turned out to be 1290 ± 260 nM. The “Inhibition (type)” value in assay [7] was “competitive inhibitor against Fru-6-P”. Moreover, the inhibition at 25 µM in assay [8] (Homo sapiens, 504 h, soft agar, 25 μM, 3 weeks, read-out: colony formation inhibited) amounted to 64%. Also, in [8] (soft agar, 25, 50 and 100 μM), the “effect on colony formation” value is “significantly inhibited colony formation”.

On to `CCOC(=O)C=C(C)Sc1cc(O)c2ccccc2c1O` (stereo in doubt) [RBC2, (Z)-ethyl 3-((1,4-dihydroxynaphthalen-2-yl)thio)but-2-enoate], for which the “Inhibition (type)” value in [7] is on record as “Competitive”. Besides, the values for the concentration for 50% growth inhibition (GI50) in [9] and in [11] were 4400 nM and 3500 nM, respectively. Further, the inhibition pattern result in assay [10] is “competitive inhibition”.
